The values that follow come from US4016193A, “Novel substituted phenylacetic acid derivatives and a process for preparing thereof” (Mitsubishi Yuka Pharmaceutical Co., Ltd., priority 1974, dated 1977).

The term ED50 denotes the dose at which the effect has come halfway, by size or by number of responders. As usually defined, the LD50 is the dose at which mortality reaches 50%. Higher therefore signals a less toxic substance.

The subject of one data set is carrageenin edema. In words: Anti-inflammatory activity: inhibition of carrageenin edema of the rat paw, oral. The data set is classed as in vivo, wistar male rats. As to conditions: read-out: inhibiting rate; for inhibition in vivo at 12.5 mg/kg: 12.5 mg/kg orally; for inhibition in vivo at 12.5 mg/kg / inhibition in vivo at 25 mg/kg / inhibition in vivo at 50 mg/kg / inhibition in vivo at 100 mg/kg: rats, 4 hours after carrageenin; for inhibition in vivo at 25 mg/kg: 25 mg/kg orally; for inhibition in vivo at 50 mg/kg: 50 mg/kg orally; for inhibition in vivo at 100 mg/kg: 100 mg/kg orally. The procedure:
The anti-inflamatory activity is shown by inhibiting rate calculated from measurement of carrageenin edema intensity. Five wistar male rats having body weight of 120 - 180g are defined as one group and after fasted for 18 hours, the sample containing a 1% tragacanth solution such as is suspended so as to become 5 ml/kg was administered orally to the said group. Only the same volume of the 1% tragacanth solution was administered to the control group. After one hour, 0.05 ml of a 1% carrageenin (manufactured by Picnin-A, Pasco International Corp.) was injected subcutaneously to the plantar legion of right hind paw of rats. Before injection and after 4 hours of injection of carrageenin, the right hind paw volume was measured by means of paw volume measurement instrument manufactured by Ugo-Basile and an increase % of paw volume was calculated. The inhibiting rate was calculated from an increase ratio of the examined group against the central groups.
A general note: Carrageenan injected into the paw causes an acute inflammation.

Data set [1] has as its system writhing syndrome caused by acetic acid. In words: Analgesic activity, acetic acid writhing method, oral. In kind it is in vivo, dd origin male mice. To be noted: for ED50: Mus musculus, po, read-out: ED50 (analgesic activity); for activity ratio: ratio of ED50 values, methyl 3-nitro-4-allyloxyphenylacetate defined as 1. The procedure:
(b) The analgesic activity was measured by means of acetic and writhing
10dd origin male mice weighing 17 -
25g were used as one group after 18 hours of fasting. After oral
administration of the test compounds the frequencies of writhing syndrome
caused by intraperitoneal administration of 0.1 ml/10g of a 0.6% acetic
acid were measured for 20 minutes. The frequencies of writhing syndrome
which are below 50% of those of the control group were defined as
analgesic activity (+) and the ED50 values were calculated by means of
Litchfield-Wilcoxon method. The ED50 value of methyl
3-nitro-4-allyloxyphenylacetate is defined as 1 and the activity ratios of
the test compounds were expressed as ratio of ED50 values. The test
compounds were administered as a suspension such as are adjusted to be 0.1
ml/10g in a 1% tragacanth solution. A 1% tragacanth solution was
administered to the control group.

The next data set is described as follows: in vivo. As to conditions: rat, po, orally, rats.
[2] abbreviates: orally, mice, 0.6% acetic acid i.p., Litchfield-Wilcoxon method.

Like-named read-outs stand apart in the source and are kept apart here. Bounds are passed on as bounds.

Turning to `C=CCOc1ccc(CC(=O)OC)cc1[N+](=O)[O-]` [Methyl 3-nitro-4-allyloxyphenylacetate], in the data set on carrageenin edema, the inhibition in vivo at 12.5 mg/kg is 51.7% and the inhibition in vivo at 25 mg/kg turned out to be 72.1%. In addition, in data set [1] (setting [2]), the ED50 was 31 mg/kg. In the data set “in vivo” (female), this molecule displayed an LD50 greater than 3000 mg/kg. Moreover, the LD50 in the data set “in vivo” (male) was greater than 3000 mg/kg.

In the case of `C=CCOc1ccc(CC(=O)O)cc1[N+](=O)[O-]` [3-Nitro-4-allyloxyphenylacetic acid], in the data set with carrageenin edema, the inhibition in vivo at 12.5 mg/kg came to 13.9%, the inhibition in vivo at 25 mg/kg amounted to 24.3% and the inhibition in vivo at 50 mg/kg turned out to be 66.6%. In data set [1] (setting [2]), the ED50 worked out at 96 mg/kg. Also, in data set [1], the activity ratio is on record as 0.32. The molecule further registered an LD50 in the data set “in vivo” (female) of 1360 mg/kg. Further, the 50% lethal dose (LD50) in “in vivo” (male) came to 1480 mg/kg.

On to `C=CCOc1ccc(C(C)C(=O)O)cc1[N+](=O)[O-]` (stereo not shown) [2-(3-nitro-4-allyloxyphenyl)propionic acid], for which the inhibition in vivo at 100 mg/kg in the data set on carrageenin edema came out at 40.1%.

For `C=CCOc1ccc(CC(N)=O)cc1[N+](=O)[O-]` [3-nitro-4-allyloxyphenylacetamide], the inhibition in vivo at 100 mg/kg in the data set with carrageenin edema worked out at 37.7%.

As to `C=CCOc1ccc(C(C)C(=O)OCC)cc1[N+](=O)[O-]` (stereo not shown) [Ethyl 2-(3-nitro-4-allyloxyphenyl)propionate], the inhibition in vivo at 100 mg/kg in the data set with carrageenin edema is 55.5%.

For `C=CCOc1ccc(C(C)C(=O)OC)cc1[N+](=O)[O-]` (stereo not shown) [Methyl 2-(3-nitro-4-allyoxyphenyl)propionate], in the data set with carrageenin edema, the inhibition in vivo at 100 mg/kg was determined as 50.1%.

Consider `C#CCOc1ccc(CC(=O)OC)cc1[N+](=O)[O-]` [Methyl 3-nitro-4-propargyloxyphenylacetate], for which the inhibition in vivo at 100 mg/kg in the data set on carrageenin edema was 44.9%.

Turning to `COc1ccc2c(c1)c(CC(=O)O)c(C)n2C(=O)c1ccc(Cl)cc1` [Indomethacine], in the data set on carrageenin edema (4 h), the inhibition in vivo at 1 mg/kg turned out to be 39.8%, the inhibition in vivo at 3 mg/kg turned out to be 46% and the inhibition in vivo at 9 mg/kg came out at 60.4%.

On to `CC(=O)Oc1ccccc1C(=O)O` [Aspirin], for which, in data set [1], the ED50 was found to be 320 mg/kg and the activity ratio is recorded as 0.09.

Take `C=CCOc1ccc(CC(=O)O)cc1Cl` [3-chloro-4-allyloxyphenylacetic acid]: in the data set with carrageenin edema, the inhibition in vivo at 25 mg/kg was 47%, the inhibition in vivo at 50 mg/kg came out at 51.8% and the inhibition in vivo at 100 mg/kg is 62%. In addition, the 50% effective dose (ED50) in data set [1] (setting [2]) worked out at 56.8 mg/kg.

On to `Cc1c(N(C)C)c(=O)n(-c2ccccc2)n1C` [Aminopyrine], for which the ED50 in data set [1] (setting [2]) is 80 mg/kg. Further, the activity ratio in data set [1] is recorded as 0.38.

Take `CCCCC1C(=O)N(c2ccccc2)N(c2ccccc2)C1=O` [Phenylbutazone]: in the data set with carrageenin edema, the inhibition in vivo at 12.5 mg/kg was 14.1%, the inhibition in vivo at 25 mg/kg turned out to be 49.1% and the inhibition in vivo at 50 mg/kg came out at 59.4%.

Consider `C#CCOc1ccc(CC(=O)O)cc1[N+](=O)[O-]` [3-Nitro-4-propargyloxyphenylacetic acid], for which, in the data set on carrageenin edema, the inhibition in vivo at 50 mg/kg worked out at 28.8% and the inhibition in vivo at 100 mg/kg came to 40.3%.

For `COc1cc(C)nc(-n2nc(C)cc2OC)n1` [Mepirizole], in the data set with carrageenin edema, the inhibition in vivo at 25 mg/kg came to 19.5%, the inhibition in vivo at 50 mg/kg was found to be 51.8% and the inhibition in vivo at 100 mg/kg turned out to be 52.7%. Besides, the ED50 in data set [1] (setting [2]) is 117 mg/kg. Also, the activity ratio in data set [1] is 0.26. Further, in the data set “in vivo” (female), the LD50 was 971 mg/kg. Besides, the LD50 in the data set “in vivo” (male) amounted to 1020 mg/kg.
